Measurements from patent publication US20130303509A1, “NAMPT INHIBITORS” (AbbVie Inc., priority 2012, published 2013).

System: PC3 cells
Test: NAMPT Cell Proliferation Assay
Type: cell-based
Details: Homo sapiens, PC-3, 120 h, 5 days incubation, cell viability by Cell Titer Glo
Procedure, shortened: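 Seeded at 500 cells/well in RPMI with 10% heat-inactivated FBS and left to attach overnight at 37° C, 5% CO2. Compounds were added as 10-fold dilutions […] for 5 days, then viability was read by CellTiter-Glo. IC50s came from sigmoidal fits of percent inhibition.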

Structure (SMILES) | IC50 [nM]
CCC(C)(C)C(=O)N1CC[C@@H](Oc2ccc(NC(=O)C3CN(c4cccnn4)C3)cc2)C1 [Example 515, N-(4-{[(3R)-1-(2,2-dimethylbutanoyl)pyrrolidin-3-yl]oxy}phenyl)-1-(pyridazin-3-yl)azetidine-3-carboxamide] | 0.85
Cc1ncccc1N1CC(C(=O)Nc2ccc(C3CCN(C(=O)C4(C)CC4)CC3)cc2)C1 [Example 170, N-(4-{1-[(1-methylcyclopropyl)carbonyl]piperidin-4-yl}phenyl)-1-(2-methylpyridin-3-yl)azetidine-3-carboxamide] | 65.5
CC[C@H](C)C(=O)N1CC[C@@H](Oc2ccc(NC(=O)C3CN(c4ccnnc4)C3)cc2)C1 [Example 445, N-[4-({(3R)-1-[(2S)-2-methylbutanoyl]pyrrolidin-3-yl}oxy)phenyl]-1-(pyridazin-4-yl)azetidine-3-carboxamide] | 19.1
O=C(Nc1ccc(C2CCN(C(=O)C3CCCCC3)CC2)cc1)C1CN(c2cccnc2)C1 [Example 136, N-{4-[1-(cyclohexylcarbonyl)piperidin-4-yl]phenyl}-1-(pyridin-3-yl)azetidine-3-carboxamide] | 0.23
O=C1CC[C@@H](C(=O)N2CCC(c3ccc(NC(=O)C4CN(c5cccnc5)C4)cc3)CC2)N1 [Example 114, N-{4-[1-(5-oxo-L-prolyl)piperidin-4-yl]phenyl}-1-(pyridin-3-yl)azetidine-3-carboxamide] | 18.1
CC(C)(C)CC(=O)N1CCC(c2ccc(NC(=O)C3CN(c4cccnn4)C3)cc2)CC1 [Example 327, N-{4-[1-(3,3-dimethylbutanoyl)piperidin-4-yl]phenyl}-1-(pyridazin-3-yl)azetidine-3-carboxamide] | 1.23
COCC(=O)N1CCC(Oc2ccc(NC(=O)C3CN(c4cccnn4)C3)cc2)CC1 [Example 246, N-(4-{[1-(methoxyacetyl)piperidin-4-yl]oxy}phenyl)-1-(pyridazin-3-yl)azetidine-3-carboxamide] | 9.65
O=C(Nc1ccc(O[C@@H]2CCN(C(=O)c3cccc(F)c3)C2)cc1)C1CN(c2ccnnc2)C1 [Example 476, N-(4-{[(3R)-1-(3-fluorobenzoyl)pyrrolidin-3-yl]oxy}phenyl)-1-(pyridazin-4-yl)azetidine-3-carboxamide] | 17.4
O=C(Nc1ccc(O[C@@H]2CCN(C(=O)c3ccc(F)cc3)C2)cc1)C1CN(c2cccnn2)C1 [Example 489, N-(4-{[(3R)-1-(4-fluorobenzoyl)pyrrolidin-3-yl]oxy}phenyl)-1-(pyridazin-3-yl)azetidine-3-carboxamide] | 2.07
CC(C)C(=O)N1CCC(Oc2ccc(NC(=O)C3CN(c4cccnn4)C3)cc2)CC1 [Example 253, N-(4-{[1-(2-methylpropanoyl)piperidin-4-yl]oxy}phenyl)-1-(pyridazin-3-yl)azetidine-3-carboxamide] | 8.09
O=C(Nc1ccc(OC2CCN(C(=O)C(F)(F)c3ccccc3)CC2)cc1)C1CN(c2ccnnc2)C1 [Example 269, N-[4-({1-[difluoro(phenyl)acetyl]piperidin-4-yl}oxy)phenyl]-1-(pyridazin-4-yl)azetidine-3-carboxamide] | 60.4
CCC(=O)N1CCC(c2ccc(NC(=O)C3CN(c4cccnc4C)C3)cc2)CC1 [Example 181, 1-(2-methylpyridin-3-yl)-N-[4-(1-propanoylpiperidin-4-yl)phenyl]azetidine-3-carboxamide] | 238
CC(C)(O)C(=O)N1CCC(c2ccc(NC(=O)C3CN(c4ccnnc4)C3)cc2)CC1 [Example 85, N-{4-[1-(2-hydroxy-2-methylpropanoyl)piperidin-4-yl]phenyl}-1-(pyridazin-4-yl)azetidine-3-carboxamide] | 20.5
Cc1cc(C)cc(CC(=O)N2CCC(c3ccc(NC(=O)C4CN(c5cccnn5)C4)cc3)CC2)c1 [Example 372, N-(4-{1-[(3,5-dimethylphenyl)acetyl]piperidin-4-yl}phenyl)-1-(pyridazin-3-yl)azetidine-3-carboxamide] | 7.06
Cc1ncccc1N1CC(C(=O)Nc2ccc(C3CCN(C(=O)C(C)(C)O)CC3)cc2)C1 [Example 71, N-{4-[1-(2-hydroxy-2-methylpropanoyl)piperidin-4-yl]phenyl}-1-(2-methylpyridin-3-yl)azetidine-3-carboxamide] | 72.9
Cc1ncccc1N1CC(C(=O)Nc2ccc(C3CCN(C(=O)c4ccsc4)CC3)cc2)C1 [Example 169, 1-(2-methylpyridin-3-yl)-N-{4-[1-(thiophen-3-ylcarbonyl)piperidin-4-yl]phenyl}azetidine-3-carboxamide] | 65.4
O=C(Nc1ccc(C2CCN(C(=O)c3nccs3)CC2)cc1)C1CN(c2cccnc2)C1 [Example 108, 1-(pyridin-3-yl)-N-{4-[1-(1,3-thiazol-2-ylcarbonyl)piperidin-4-yl]phenyl}azetidine-3-carboxamide] | 0.13
O=C(Nc1ccc(OC2CCN(C(=O)c3cccs3)CC2)cc1)C1CN(c2cccnn2)C1 [Example 249, 1-(pyridazin-3-yl)-N-(4-{[1-(thiophen-2-ylcarbonyl)piperidin-4-yl]oxy}phenyl)azetidine-3-carboxamide] | 2.35
O=C(Nc1ccc(O[C@@H]2CCN(C(=O)C3CCOCC3)C2)cc1)C1CN(c2ccnnc2)C1 [Example 446, 1-(pyridazin-4-yl)-N-(4-{[(3R)-1-(tetrahydro-2H-pyran-4-ylcarbonyl)pyrrolidin-3-yl]oxy}phenyl)azetidine-3-carboxamide] | 108
O=C(Nc1ccc(OC2CN(C(=O)CC3CCOCC3)C2)cc1)C1CN(c2ccnnc2)C1 [Example 256, 1-(pyridazin-4-yl)-N-(4-{[1-(tetrahydro-2H-pyran-4-ylacetyl)azetidin-3-yl]oxy}phenyl)azetidine-3-carboxamide] | 145
Cc1ncccc1N1CC(C(=O)Nc2ccc(C3CCN(C(=O)C4(C)CCCCC4)CC3)cc2)C1 [Example 177, N-(4-{1-[(1-methylcyclohexyl)carbonyl]piperidin-4-yl}phenyl)-1-(2-methylpyridin-3-yl)azetidine-3-carboxamide] | 107
O=C(Nc1ccc(S(=O)(=O)C2CCN(C(=O)c3ccccc3)CC2)cc1)C1CN(c2cccnn2)C1 [Example 574, N-{4-[(1-benzoylpiperidin-4-yl)sulfonyl]phenyl}-1-(pyridazin-3-yl)azetidine-3-carboxamide] | 55.3
Cc1ccc(F)cc1C(=O)N1CCC(c2ccc(NC(=O)C3CN(c4cccnn4)C3)cc2)CC1 [Example 388, N-{4-[1-(5-fluoro-2-methylbenzoyl)piperidin-4-yl]phenyl}-1-(pyridazin-3-yl)azetidine-3-carboxamide] | 0.88

More lines, now with the values ahead:

IC50 [nM] | Structure (SMILES)
2.76 | CC1(C(=O)N2CCC(c3ccc(NC(=O)[C@H]4CCN(c5cccnn5)C4)cc3)CC2)CCCCC1 [Example 654, (3S)-N-(4-{1-[(1-methylcyclohexyl)carbonyl]piperidin-4-yl}phenyl)-1-(pyridazin-3-yl)pyrrolidine-3-carboxamide]
12.5 | Cc1ccc(N2CC(C(=O)Nc3ccc(C4CCN(C(=O)c5ccccc5)CC4)cc3)C2)nn1 [Example 667, N-[4-(1-benzoylpiperidin-4-yl)phenyl]-1-(6-methylpyridazin-3-yl)azetidine-3-carboxamide]
86.9 | O=C(NCC(=O)N1CCC(c2ccc(NC(=O)[C@H]3CCN(c4cccnn4)C3)cc2)CC1)c1ccccc1 [Example 650, (3S)-N-{4-[1-(N-benzoylglycyl)piperidin-4-yl]phenyl}-1-(pyridazin-3-yl)pyrrolidine-3-carboxamide]
25.5 | O=C(Nc1ccc(OC2CCN(C(=O)c3ccccc3)CC2)cc1)[C@H]1CCN(c2cccnn2)C1 [Example 799, (3S)-N-{4-[(1-benzoylpiperidin-4-yl)oxy]phenyl}-1-(pyridazin-3-yl)pyrrolidine-3-carboxamide]
8.8 | O=C(Nc1ccc(C2CN(C(=O)c3ccc(F)cc3F)C2)cc1)[C@H]1CCN(c2cccnn2)C1 [Example 792, (3S)-N-{4-[1-(2,4-difluorobenzoyl)azetidin-3-yl]phenyl}-1-(pyridazin-3-yl)pyrrolidine-3-carboxamide]
8.12 | O=C(Nc1ccc(C2CCN(C(=O)c3cncs3)CC2)cc1)[C@H]1CCN(c2cccnn2)C1 [Example 630, (3S)-1-(pyridazin-3-yl)-N-{4-[1-(1,3-thiazol-5-ylcarbonyl)piperidin-4-yl]phenyl}pyrrolidine-3-carboxamide]
1900 | CC(C)(C)C(=O)N1CCC(c2ccc(NC(=O)C3CCN(c4cccnn4)CC3)cc2)CC1 [Example 625, N-{4-[1-(2,2-dimethylpropanoyl)piperidin-4-yl]phenyl}-1-(pyridazin-3-yl)piperidine-4-carboxamide]
8.92 | CC(C)(O)Cn1cc(-c2ccc(NC(=O)C3CN(c4cccnn4)C3)cc2)cn1 [Example 753, N-{4-[1-(2-hydroxy-2-methylpropyl)-1H-pyrazol-4-yl]phenyl}-1-(pyridazin-3-yl)azetidine-3-carboxamide]
181 | Cc1cncc(N2CC(C(=O)Nc3ccc(C4CCN(C(=O)c5ccccc5)CC4)cc3)C2)c1 [Example 741, N-[4-(1-benzoylpiperidin-4-yl)phenyl]-1-(5-methylpyridin-3-yl)azetidine-3-carboxamide]
7310 | Cc1cc(F)ncc1N1CC(C(=O)Nc2ccc(C3CCN(C(=O)c4ccccc4)CC3)cc2)C1 [Example 739, N-[4-(1-benzoylpiperidin-4-yl)phenyl]-1-(6-fluoro-4-methylpyridin-3-yl)azetidine-3-carboxamide]
6.79 | CC1(C(=O)N2CCC(c3ccc(NC(=O)[C@H]4CCN(c5cccnn5)C4)cc3)CC2)CC1 [Example 712, (3S)-N-(4-{1-[(1-methylcyclopropyl)carbonyl]piperidin-4-yl}phenyl)-1-(pyridazin-3-yl)pyrrolidine-3-carboxamide]
2 | CC(C)(N)C(=O)N1CCC(c2ccc(NC(=O)C3CN(c4cccnc4)C3)cc2)CC1 [Example 602, N-{4-[1-(2-methylalanyl)piperidin-4-yl]phenyl}-1-(pyridin-3-yl)azetidine-3-carboxamide]
